Measured values from US20230085307A1, “PYRIDAZINONE COMPOUND AND HERBICIDE” (NISSAN CHEMICAL CORPORATION, priority 2019, published 2023).

Key:
barnyard grass [1] = assay: Test Example 3: herbicidal effect by foliage application, Wagner pot (Table 18, symbol H); type: in vivo, barnyard grass (Echinochloa crus-galli); settings: amount of applied herbicide 147 g/ha
Summary of the method: (§1)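 Plants were sown in alluvial soil held under 0.1–0.5 cm standing water and grown 14 days in a greenhouse at 25–30 °C. An emulsifiable formulation, water-diluted to the set dose, was then sprayed onto the foliage, and effects were scored three weeks later using previously defined criteria.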

Chinese sprangletop = assay: Test Example 3: herbicidal effect by foliage application, Wagner pot (Table 18, symbol D); type: in vivo, chinese sprangletop (Leptochloa chinensis); settings: amount of applied herbicide 147 g/ha
Summary of the method: as §1

rice flat sedge = assay: Test Example 3: herbicidal effect by foliage application, Wagner pot (Table 18, symbol E); type: in vivo, rice flat sedge (Cyperus iria); settings: amount of applied herbicide 147 g/ha
Summary of the method: as §1

southern crabgrass [2] = assay: Test Example 4: herbicidal effect by soil treatment (Table 19, symbol F); type: in vivo, southern crabgrass (Digitaria ciliaris); settings: amount of applied herbicide 147 g/ha
Summary of the method: (§2)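 Scoring uses the grading scale of an earlier test, three weeks post-application. Treatment consists of spraying a diluted emulsion formulation across the surface of sterilized diluvial soil in which seeds are buried near 1.5 cm deep; boxes are kept in a greenhouse between 25° C. and 30° C.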

green foxtail [3] = assay: Test Example 4: herbicidal effect by soil treatment (Table 19, symbol G); type: in vivo, green foxtail (Setaria viridis); settings: amount of applied herbicide 147 g/ha
Summary of the method: as §2

barnyard grass [4] = assay: Test Example 4: herbicidal effect by soil treatment (Table 19, symbol H); type: in vivo, barnyard grass (Echinochloa crus-galli); settings: amount of applied herbicide 147 g/ha
Summary of the method: as §2

wild oat [5] = assay: Test Example 4: herbicidal effect by soil treatment (Table 19, symbol I); type: in vivo, wild oat (Avena fatua); settings: amount of applied herbicide 147 g/ha
Summary of the method: as §2

blackgrass [6] = assay: Test Example 4: herbicidal effect by soil treatment (Table 19, symbol J); type: in vivo, blackgrass (Alopecurus myosuroides); settings: amount of applied herbicide 147 g/ha
Summary of the method: as §2

Italian ryegrass [7] = assay: Test Example 4: herbicidal effect by soil treatment (Table 19, symbol K); type: in vivo, Italian ryegrass (Lolium multiflorum); settings: amount of applied herbicide 147 g/ha
Summary of the method: as §2

windgrass [8] = assay: Test Example 4: herbicidal effect by soil treatment (Table 19, symbol L); type: in vivo, windgrass (Apera spica-venti); settings: amount of applied herbicide 147 g/ha
Summary of the method: as §2

velvetleaf [9] = assay: Test Example 4: herbicidal effect by soil treatment (Table 19, symbol M); type: in vivo, velvetleaf (Abutilon theophrasti); settings: amount of applied herbicide 147 g/ha
Summary of the method: as §2

redroot pigweed = assay: Test Example 4: herbicidal effect by soil treatment (Table 19, symbol N); type: in vivo, redroot pigweed (Amaranthus retroflexus); settings: amount of applied herbicide 147 g/ha
Summary of the method: as §2

lambsquarters [10] = assay: Test Example 4: herbicidal effect by soil treatment (Table 19, symbol O); type: in vivo, lambsquarters (Chenopodium album); settings: amount of applied herbicide 147 g/ha
Summary of the method: as §2

chickweed = assay: Test Example 4: herbicidal effect by soil treatment (Table 19, symbol P); type: in vivo, common chickweed (Stellaria media); settings: amount of applied herbicide 147 g/ha
Summary of the method: as §2

persian speedwell [11] = assay: Test Example 4: herbicidal effect by soil treatment (Table 19, symbol R); type: in vivo, Persian speedwell (Veronica persica); settings: amount of applied herbicide 147 g/ha
Summary of the method: as §2

southern crabgrass [12] = assay: Test Example 5: herbicidal effect by foliage application, plastic box (Table 20, symbol F); type: in vivo, southern crabgrass (Digitaria ciliaris); settings: foliage application, 147 g/ha, three weeks after application
Summary of the method: (§3)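 Post-emergence foliar test in sterilized diluvial soil. Compound applied as water-diluted emulsion at a predetermined rate to 14-day-old plants; evaluation at three weeks.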

green foxtail [13] = assay: Test Example 5: herbicidal effect by foliage application, plastic box (Table 20, symbol G); type: in vivo, green foxtail (Setaria viridis); settings: foliage application, 147 g/ha, three weeks after application
Summary of the method: as §3

barnyard grass [14] = assay: Test Example 5: herbicidal effect by foliage application, plastic box (Table 20, symbol H); type: in vivo, barnyard grass (Echinochloa crus-galli); settings: foliage application, 147 g/ha, three weeks after application
Summary of the method: as §3

wild oat [15] = assay: Test Example 5: herbicidal effect by foliage application, plastic box (Table 20, symbol I); type: in vivo, wild oat (Avena fatua); settings: foliage application, 147 g/ha, three weeks after application
Summary of the method: as §3

blackgrass [16] = assay: Test Example 5: herbicidal effect by foliage application, plastic box (Table 20, symbol J); type: in vivo, blackgrass (Alopecurus myosuroides); settings: foliage application, 147 g/ha, three weeks after application
Summary of the method: as §3

Italian ryegrass [17] = assay: Test Example 5: herbicidal effect by foliage application, plastic box (Table 20, symbol K); type: in vivo, Italian ryegrass (Lolium multiflorum); settings: foliage application, 147 g/ha, three weeks after application
Summary of the method: as §3

windgrass [18] = assay: Test Example 5: herbicidal effect by foliage application, plastic box (Table 20, symbol L); type: in vivo, windgrass (Apera spica-venti); settings: foliage application, 147 g/ha, three weeks after application
Summary of the method: as §3

velvetleaf [19] = assay: Test Example 5: herbicidal effect by foliage application, plastic box (Table 20, symbol M); type: in vivo, velvetleaf (Abutilon theophrasti); settings: foliage application, 147 g/ha, three weeks after application
Summary of the method: as §3

lambsquarters [20] = assay: Test Example 5: herbicidal effect by foliage application, plastic box (Table 20, symbol O); type: in vivo, lambsquarters (Chenopodium album); settings: foliage application, 147 g/ha, three weeks after application
Summary of the method: as §3

false cleavers = assay: Test Example 5: herbicidal effect by foliage application, plastic box (Table 20, symbol Q); type: in vivo, false cleavers (Galium spurium); settings: foliage application, 147 g/ha, three weeks after application
Summary of the method: as §3

persian speedwell [21] = assay: Test Example 5: herbicidal effect by foliage application, plastic box (Table 20, symbol R); type: in vivo, Persian speedwell (Veronica persica); settings: foliage application, 147 g/ha, three weeks after application
Summary of the method: as §3

With `COc1ccccc1-c1oc2ccc(C)cc2c1-c1c(O)c(C)nn(C)c1=O` [9-006] the “Herbicidal effect on H (barnyard grass), foliage application” value (barnyard grass [1]) was 1 (Herbicidal rate of 5% or more and less than 20%), the “Herbicidal effect on D (Chinese sprangletop), foliage application” value (Chinese sprangletop) was 0 (Herbicidal rate of 5% or less (almost no effect)) and the “Herbicidal effect on E (rice flat sedge), foliage application” value (rice flat sedge) was 2 (Herbicidal rate of 20% or more and less than 40%). The “F: southern crabgrass, herbicidal effect grade” value (southern crabgrass [2]) was 0 (Herbicidal rate of 5% or less (almost no effect)), the “G: green foxtail, herbicidal effect grade” value (green foxtail [3]) was 0 (Herbicidal rate of 5% or less (almost no effect)) and the “H: barnyard grass, herbicidal effect grade” value (barnyard grass [4]) was 0 (Herbicidal rate of 5% or less (almost no effect)). For the same compound, the “I: wild oat, herbicidal effect grade” value (wild oat [5]) was 0 (Herbicidal rate of 5% or less (almost no effect)), the “J: blackgrass, herbicidal effect grade” value (blackgrass [6]) was 0 (Herbicidal rate of 5% or less (almost no effect)) and the “K: Italian ryegrass, herbicidal effect grade” value (Italian ryegrass [7]) was 0 (Herbicidal rate of 5% or less (almost no effect)). For the same compound, the “L: windgrass, herbicidal effect grade” value (windgrass [8]) was 0 (Herbicidal rate of 5% or less (almost no effect)), the “M: velvetleaf, herbicidal effect grade” value (velvetleaf [9]) was 0 (Herbicidal rate of 5% or less (almost no effect)) and the “N: redroot pigweed, herbicidal effect grade” value (redroot pigweed) was 3 (Herbicidal rate of 40% or more and less than 70%). For the same compound, the “O: lambsquarters, herbicidal effect grade” value (lambsquarters [10]) was 0 (Herbicidal rate of 5% or less (almost no effect)), the “P: chickweed, herbicidal effect grade” value (chickweed) was 0 (Herbicidal rate of 5% or less (almost no effect)) and the “R: persian speedwell, herbicidal effect grade” value (persian speedwell [11]) was 0 (Herbicidal rate of 5% or less (almost no effect)). The “herbicidal effect on southern crabgrass (F)” value (southern crabgrass [12]) was 0 (Herbicidal rate of 5% or less (almost no effect)), the “herbicidal effect on green foxtail (G)” value (green foxtail [13]) was 0 (Herbicidal rate of 5% or less (almost no effect)) and the “herbicidal effect on barnyard grass (H)” value (barnyard grass [14]) was 0 (Herbicidal rate of 5% or less (almost no effect)). For the same compound, the “herbicidal effect on wild oat (I)” value (wild oat [15]) was 0 (Herbicidal rate of 5% or less (almost no effect)), the “herbicidal effect on blackgrass (J)” value (blackgrass [16]) was 0 (Herbicidal rate of 5% or less (almost no effect)) and the “herbicidal effect on Italian ryegrass (K)” value (Italian ryegrass [17]) was 0 (Herbicidal rate of 5% or less (almost no effect)). For the same compound, the “herbicidal effect on windgrass (L)” value (windgrass [18]) was 0 (Herbicidal rate of 5% or less (almost no effect)), the “herbicidal effect on velvetleaf (M)” value (velvetleaf [19]) was 2 (Herbicidal rate of 20% or more and less than 40%) and the “herbicidal effect on lambsquarters (O)” value (lambsquarters [20]) was 0 (Herbicidal rate of 5% or less (almost no effect)). The “herbicidal effect on false cleavers (Q)” value (false cleavers) was 3 (Herbicidal rate of 40% or more and less than 70%) and the “herbicidal effect on persian speedwell (R)” value (persian speedwell [21]) was 0 (Herbicidal rate of 5% or less (almost no effect)).
